“Also recorded” adds a separate entry of the source.
Legend:
[1] = Working memory (MWM) in ischemic rats; assay type: in vivo, rat; conditions: 0.5 mg/kg po chronic, vs DDW
Procedure: This was done by a bilateral carotid artery occlusion in Sprague Dawley rats: […] Ischemia was induced in 21 rats whereas the other 21 rats served as sham controls. Under pentobarbital anasthesia (30 mg/kg, ip), sodium nitropruside 4.8 mg/kg/hr) was infused through a cannula implanted in the tail vein, for a period of 25 min. […] Immediately afterwards 1.8 mEq sodium bicarbonate solution was administerd ip in order to minimize systemic acidosis. The sham operated rats were anesthetized as the ischemic rats and were infused with saline. Their carotid arteries were exposed but were not subject to carotid clamping. […] Animals were allowed to recover for 3 weeks prior to behavioral testing. […] The evaluation of the animals was done using the working-memory matching-to-sample paradigm in the MWM. […] REL and RPL reflect the relative saving in performance from trial no 1 to trial no 2. REL and RPL were analyzed by a 3-way ANOVA (2×2×3), with one repeated variable (weeks) and two non-repeated variables (Operation-ischemia/sham-operated and Treatment-AF150(S)/DDW).

[2] = tested on: ApoE; assay: ApoE synthesis and secretion in rat primary type 1 astrocytes; assay type: cell-based; conditions: 96 hrs; 0.1 nM
Procedure: Primary cultures of type 1 astrocytes were derived from the cortex of Sprague Dawley rats. The compounds tested were dissolved in the culture media and added to cells for 24, 48, 72 and 96 hrs. Media was then removed and kept frozen until ApoE protein levels were evaluated by immunoblot analysis as described in Poirier et al Neuroscience 55: 81-90 (1993).

[3] = Aging microcebes, chronic treatment; assay type: in vivo; conditions: chronic treatment for 18 months
Description: Aging microcebes show similar cognitive deficits and cerebral lesions to those observed in aging humans and in AD patients. Thus this is a good animal model for AD, […] major hallmarks in AD {plaques (Aβ), paired helical filaments (hyperphophorylated and aggregated τ) and cognitive dysfunction}.

[4] = Stability of 10% w/w AF150(S) in paraffin oil; assay type: physicochemical
Procedure: In another embodiment of the invention, AF150(S) is provided in pharmaceutical acceptable paraffin oil. […] Ph) was examined at 40° C. under air or nitrogen atmosphere, in the presence or absence tocopherol. Samples were analyzed after two months storage. TLC, […] and GC were used to detect and determine the quantity of possible degradation product(s). Color changes were determined in comparison with Paraffin oil with or without tocopherol under the same conditions. AF150(S) was stable in the paraffin oil formulation.

[5] = molecular target: muscarinic receptors (QNB, rat cerebellar membranes) (Rattus norvegicus, UniProt P10980); conditions: read-out: QNB binding, Ki
Sequence of muscarinic receptors (QNB, rat cerebellar membranes) (P10980 whole entry): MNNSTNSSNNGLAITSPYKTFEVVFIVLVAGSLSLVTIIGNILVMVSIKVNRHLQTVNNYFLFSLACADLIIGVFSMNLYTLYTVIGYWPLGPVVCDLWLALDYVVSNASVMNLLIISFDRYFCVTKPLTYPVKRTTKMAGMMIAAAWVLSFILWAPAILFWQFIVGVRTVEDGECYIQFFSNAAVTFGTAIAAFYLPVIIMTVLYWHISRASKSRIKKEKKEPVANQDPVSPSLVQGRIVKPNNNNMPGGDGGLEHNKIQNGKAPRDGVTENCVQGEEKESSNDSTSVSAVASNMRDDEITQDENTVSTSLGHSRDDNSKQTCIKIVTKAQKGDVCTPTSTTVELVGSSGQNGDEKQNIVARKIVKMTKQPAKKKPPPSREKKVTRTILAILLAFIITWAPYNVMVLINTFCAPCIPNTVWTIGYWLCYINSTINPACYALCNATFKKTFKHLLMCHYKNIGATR

[6] = tested on: Aβ / γ-secretase; assay: Aβ levels in primary rat cortical neurons infected with Semliki Forest virus encoding human APP695, C99 or C111; assay type: cell-based
Procedure: The mechanism of Aβ modulation was tested using C99 (and C111) that are truncated constructs generated from APP. Unlike APP, C99/C111 are direct substrates for γ-secretase. With both constructs it is possible to directly assay for γ-secretase activity, while with APP this is not possible. Both constructs are—as compared to APP—inefficient substrates for […]. Synergistc effects were also evaluated with CDX (methyl-β-cyclodextrin), an agent which extracts cholesterol from the plasma membrane. CDX inhibits also Aβ production CDX-treated cells were treated in addition to the respective muscarinic agonist for 5 min to reduce the cholesterol content.

[7] = tested on: β-catenin; assay: β-catenin levels in rat hippocampal neurons; assay type: cell-based; conditions: 100 μM; Aβ1-40 5 μM
Procedure: (§1) This study was performed in rat hippocampal primary cell cultures using the methods described by Garrido J L et al. (FASEB J 2002; 16:1982).

[8] = tested on: rat hippocampal neurons; assay: Survival, morphology and apoptosis of rat hippocampal neurons exposed to Aβ; assay type: cell-based
Procedure: as §1

[9] = Morris water maze in AF64A-injected rats; assay type: in vivo, rat
Procedure: AF64A or saline-injected (6 months old) Sprague-Dawley rats were tested in the Morris Water Maze (MWM) task. The paradigm used assesses spatial learning abilities in a reference memory regimen, and involves training (days 1-4), transfer test (Probe trial—day 4, 3 min following the last training trial) and reversal test (day 5).
Drugs and PBS were administered once a day for 5 days before starting the behavioral testing, and then for the duration of the 5-day experiment, 30 min before testing.
The three measures, escape latency, path length and swimming speed were analyzed by MANOVA, followed by simple main effects contrast analysis.

[10] = pKa and free base fraction at CSF pH; conditions: pH 7.35 (CSF), calculated from pKa
Procedure: For such compounds at the relevant pH of 7.35, only 2.2% are in non-ionized form. […] This calculation was based on the brain weight (2 gr) vs. total plasma volume (14 ml).

[11] = tested on: adenosine A1, A2A, A3; alpha 1, alpha 2, beta 1; AT1; BZD; B2; CCKA; D1, D2S; ETA; GABA; GAL2; IL-8B; CCR1; H1, H2; MC4; ML1; NK2, NK3; Y1, Y2; NT1; opiate …; assay: Selectivity binding panel for AF292; conditions: 10 μM
[12] = molecular target: T1, human M3 receptor (Homo sapiens, UniProt P20309); assay: Arachidonic acid (AA) release, human M3; assay type: cell-based
T1 construct: expressed in transfected cells
T1 sequence (P20309 whole entry): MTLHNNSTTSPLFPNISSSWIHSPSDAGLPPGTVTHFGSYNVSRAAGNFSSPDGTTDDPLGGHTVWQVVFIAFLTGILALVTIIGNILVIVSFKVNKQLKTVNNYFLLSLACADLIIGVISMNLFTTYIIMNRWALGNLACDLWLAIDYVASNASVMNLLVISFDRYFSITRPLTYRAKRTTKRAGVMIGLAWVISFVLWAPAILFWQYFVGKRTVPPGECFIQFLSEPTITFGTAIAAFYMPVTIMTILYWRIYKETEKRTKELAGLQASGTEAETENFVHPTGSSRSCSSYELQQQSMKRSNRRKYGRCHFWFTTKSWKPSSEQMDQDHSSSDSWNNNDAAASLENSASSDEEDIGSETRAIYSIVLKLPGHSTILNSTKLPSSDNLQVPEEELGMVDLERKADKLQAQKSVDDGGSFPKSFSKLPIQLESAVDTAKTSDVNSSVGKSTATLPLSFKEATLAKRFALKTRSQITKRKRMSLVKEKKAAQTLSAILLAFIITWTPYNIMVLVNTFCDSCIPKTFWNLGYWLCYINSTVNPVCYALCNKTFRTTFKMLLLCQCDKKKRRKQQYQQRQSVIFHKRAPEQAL

[13] = tested on: Isolated Guinea Pig Right Atrium; assay: Isolated guinea pig right atrium
Procedure: • 1. Astemizole (human ether-a-go-go related gene (HERG) Channel) Binding Assay. […] Isolated Guinea Pig Right Atrium (atrial fibrillation). […] Effects of AF292 (dose 5 mg/kg orally) on cardiac electrophysiological, cardio-haemodynamic in instrumented, awake dogs. Healthy trained and chronically instrumented female Beagle dogs of varying age and ranging in body weight from 9.4 to 12 kg, were used for recording of the cardiovascular parameters: heart rate, diastolic and systolic blood pressure, pressure rate product, LV dp/dt max, LV dp/dt max/pd, LV dp/dt min, cardiac output, stroke volume, systemic vascular resistance and the ECG parameters (PQ-, QRS-, QT-, QTcBazett—(QTcB), QTcFridericia—(QTcF) and QTcVan de Water—(QTcVdW) interval duration and QT-dispersion. During the last 18 hours prior to the experiments, the dogs had no access to food. Water was available ad libitum. At the beginning of each experiment, control values of the various parameters were recorded for at least 30 min. Thereafter, 5 mg/kg of AF292 (n=4) or the corresponding volume of the solvent (n=4) was administered orally by gavage. The various haemodynamic parameters were recorded continuously for 4 hours thereafter.

[14] = molecular target: T2, human M5 receptor (Homo sapiens, UniProt P08912); assay: PI hydrolysis, human M5; assay type: cell-based
T2 construct: expressed in transfected cells
T2 sequence (P08912 whole entry): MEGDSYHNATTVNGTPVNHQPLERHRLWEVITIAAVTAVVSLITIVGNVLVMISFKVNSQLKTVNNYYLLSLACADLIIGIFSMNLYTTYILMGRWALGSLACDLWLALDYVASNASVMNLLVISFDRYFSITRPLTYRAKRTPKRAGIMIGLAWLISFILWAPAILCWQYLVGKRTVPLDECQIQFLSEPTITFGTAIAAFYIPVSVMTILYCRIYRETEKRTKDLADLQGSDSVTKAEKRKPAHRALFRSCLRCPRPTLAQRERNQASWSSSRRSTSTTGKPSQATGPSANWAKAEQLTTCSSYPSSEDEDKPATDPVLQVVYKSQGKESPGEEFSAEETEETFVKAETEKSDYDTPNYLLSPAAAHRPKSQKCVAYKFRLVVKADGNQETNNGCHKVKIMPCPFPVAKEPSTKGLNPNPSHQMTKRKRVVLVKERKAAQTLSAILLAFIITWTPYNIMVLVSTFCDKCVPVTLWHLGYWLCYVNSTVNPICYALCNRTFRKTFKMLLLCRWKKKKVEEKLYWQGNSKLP

[15] = molecular target: M2 mAChR (Homo sapiens, UniProt P08172); assay: Intracellular Ca ions in modified cell cultures, M2; assay type: cell-based; conditions: 10^−9-10^−3M
Sequence of M2 mAChR (P08172 whole entry): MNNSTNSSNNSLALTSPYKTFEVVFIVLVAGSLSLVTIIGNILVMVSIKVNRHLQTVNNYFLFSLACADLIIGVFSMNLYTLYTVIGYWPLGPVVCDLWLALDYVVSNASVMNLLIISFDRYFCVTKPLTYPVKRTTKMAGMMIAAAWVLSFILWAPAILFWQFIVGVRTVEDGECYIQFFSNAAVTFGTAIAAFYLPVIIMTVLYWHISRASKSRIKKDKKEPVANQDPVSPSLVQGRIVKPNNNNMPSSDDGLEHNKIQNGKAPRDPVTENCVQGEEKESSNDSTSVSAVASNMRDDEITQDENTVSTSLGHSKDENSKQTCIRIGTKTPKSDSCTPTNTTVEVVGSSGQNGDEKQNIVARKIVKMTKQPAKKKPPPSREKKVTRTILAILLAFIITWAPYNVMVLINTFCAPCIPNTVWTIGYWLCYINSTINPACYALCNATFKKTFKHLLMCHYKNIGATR

CC1=NCC2(CCN(C)CC2)S1 [AF150(S), 2,8-Dimethyl-1-thia-3,8-diaza-spiro[4.5]dec-2-ene]
working memory performance (REL and RPL) [1]: significantly improved working memory performance
inhibition of ApoE production [2]: to a lesser extent
astrogliosis and inflammation [3]: decreased astrogliosis and inflammation
cognitive and behavioral impairments [3]: improved the cognitive and behavioral impairments
hyperphosphorylated τ proteins, neurons with aggregated τ, paired helical filaments [3]: decreased hyperphosphorylated τ proteins
Stability in the paraffin oil formulation ([4]; 40° C., two months): stable
Color change ([4]; samples containing 0.5% w/w tocopherol): color was not developed
Color change ([4]; samples without tocopherol): slight yellow color

CC[C@@H]1SC2(CCN(C)CC2)NC1=O [AF267B, (S)-2-ethyl-8-methyl-1-thia-4,8-diaza-spiro[4.5]decan-3-one]
Ki [5]: 45.2 ± 10.8 µM
reduction of the release of Aβ-like fragments (3-4 Kda) [6]: approximately 50%
p3 fragment ([6]; 1 mM, vs control): complete loss
Aβ with cholesterol lowering agent CDX ([6]; with CDX (5 mM)): undetectable Aβ levels
Aβ1-40-induced degradation of soluble β-catenin [7]: prevented
survival and morphology of hippocampal neurons ([8]; 0.5-50 μM, compound alone): does not affect the survival and morphology
neurites / dendritic shrinkage induced by Aβ1-40 ([8]; blocked by pirenzepine 10 nM): protected the neurons
reversal test ([9]; AF64A rats, 1 mg/kg): tendency for improvement
training, escape latency ([9]; AF64A rats, 1 mg/kg): tendency for improvement
reversal test ([9]; AF64A rats, 3 mg/kg): tendency for impairment
training performance ([9]; AF64A rats, 3 mg/kg): tended to impair performance
learning (training) ([9]; AF64A rats, 0.3, 1, 3 mg/kg po): no significant effect on learning
probe trial, escape latency ([9]; AF64A rats, all doses): complete spatial bias
% of the compound in free base form [10]: 26.2%

CC[C@@H]1SC2(CCNCC2)NC1=O [AF292, (S)-2-Ethyl-1-thia-4,8-diaza-spiro[4.5]decan-3-one]
binding to other receptors, channels and transporter [11]: no binding at all
AA release, agonist activity [12]: inactive as an agonist
contractile force [13]: no significant effect
contractile rate ([13]; vs vehicle group): tended to slightly reduce
PI turnover, agonist activity [14]: PI, AA: M5 mAChR - no effect as agonist
agonist activity at M2 mAChR [15]: inactive as an agonist; also recorded: M2 mAChR - no effects as agonist

Reference: patent US7439251B2, “Methods and compositions for treatment of central and peripheral nervous system disorders and novel compounds useful therefor” (Israel Institute for Biological Research, priority 2002, dated 2008)
